Data from article PMC7070407, “Moringin, A Stable Isothiocyanate from Moringa oleifera, Activates the Somatosensory and Pain Receptor TRPA1 Channel In Vitro” (Molecules, 2020).

Tested on: not transfected HEK-293 cells
Assay: Effect on [Ca2+]i in not transfected HEK-293 cells (baseline)
Type: cell-based, human
Conditions: AITC 100 μM
Method: Compound and extracts’ effects on intracellular Ca^2+ concentration ([Ca^2+]i) were determined using the selective intracellular fluorescent probe for Ca^2+ Fluo-4. Assay of rat TRPA1, TRPV2, TRPV3, TRPV4, TRPM8 or human TRPV1 mediated elevation of intracellular Ca^2+ in transfected HEK-293 cells are been performed as described. Briefly, human embryonic kidney (HEK-293) cells, stably transfected with rat TRPA1, TRPV2, TRPV3, TRPV4, TRPM8 or human TRPV1 (selected by Geneticin 600 μg mL^−1) or not transfected, were cultured in EMEM + 2 mM Glutamine + 1% Non-Essential Amino Acids (NEAA) + 10% FBS and maintained at 37 °C with 5% CO2. Stable transfections were checked by quantitative real-time polymerase chain reaction (PCR), quantitative real-time PCR was performed by an iCycler-iQ (Bio-Rad, Hercules, CA, USA) in a 20 μL reaction mixture containing the following: 10 μL iQ SYBR Green Supermix 2X (Bio-Rad), 20 ng of cDNA (calculated on the basis of the retro-transcribed RNA), and 330 nM for each primer. […] Cell fluorescence before and after the addition of various concentrations of test compounds and extracts were measured normalizing the effects against the response to ionomycin (4 µM). […] The potency of the compounds (EC50 values) are determined as the concentration required to produce half-maximal increases in [Ca^2+]i. […]

For `C=CCN=C=S` [AITC, Allylisothiocyanate, reference compound], the “Effect on not transfected HEK-293 cells” value was “about 1%”.
